Assay [1] concerns the target T1, angiotensin-converting enzyme (ACE) (Oryctolagus cuniculus, UniProt P12822).
T1 sequence (P12822 34-1310): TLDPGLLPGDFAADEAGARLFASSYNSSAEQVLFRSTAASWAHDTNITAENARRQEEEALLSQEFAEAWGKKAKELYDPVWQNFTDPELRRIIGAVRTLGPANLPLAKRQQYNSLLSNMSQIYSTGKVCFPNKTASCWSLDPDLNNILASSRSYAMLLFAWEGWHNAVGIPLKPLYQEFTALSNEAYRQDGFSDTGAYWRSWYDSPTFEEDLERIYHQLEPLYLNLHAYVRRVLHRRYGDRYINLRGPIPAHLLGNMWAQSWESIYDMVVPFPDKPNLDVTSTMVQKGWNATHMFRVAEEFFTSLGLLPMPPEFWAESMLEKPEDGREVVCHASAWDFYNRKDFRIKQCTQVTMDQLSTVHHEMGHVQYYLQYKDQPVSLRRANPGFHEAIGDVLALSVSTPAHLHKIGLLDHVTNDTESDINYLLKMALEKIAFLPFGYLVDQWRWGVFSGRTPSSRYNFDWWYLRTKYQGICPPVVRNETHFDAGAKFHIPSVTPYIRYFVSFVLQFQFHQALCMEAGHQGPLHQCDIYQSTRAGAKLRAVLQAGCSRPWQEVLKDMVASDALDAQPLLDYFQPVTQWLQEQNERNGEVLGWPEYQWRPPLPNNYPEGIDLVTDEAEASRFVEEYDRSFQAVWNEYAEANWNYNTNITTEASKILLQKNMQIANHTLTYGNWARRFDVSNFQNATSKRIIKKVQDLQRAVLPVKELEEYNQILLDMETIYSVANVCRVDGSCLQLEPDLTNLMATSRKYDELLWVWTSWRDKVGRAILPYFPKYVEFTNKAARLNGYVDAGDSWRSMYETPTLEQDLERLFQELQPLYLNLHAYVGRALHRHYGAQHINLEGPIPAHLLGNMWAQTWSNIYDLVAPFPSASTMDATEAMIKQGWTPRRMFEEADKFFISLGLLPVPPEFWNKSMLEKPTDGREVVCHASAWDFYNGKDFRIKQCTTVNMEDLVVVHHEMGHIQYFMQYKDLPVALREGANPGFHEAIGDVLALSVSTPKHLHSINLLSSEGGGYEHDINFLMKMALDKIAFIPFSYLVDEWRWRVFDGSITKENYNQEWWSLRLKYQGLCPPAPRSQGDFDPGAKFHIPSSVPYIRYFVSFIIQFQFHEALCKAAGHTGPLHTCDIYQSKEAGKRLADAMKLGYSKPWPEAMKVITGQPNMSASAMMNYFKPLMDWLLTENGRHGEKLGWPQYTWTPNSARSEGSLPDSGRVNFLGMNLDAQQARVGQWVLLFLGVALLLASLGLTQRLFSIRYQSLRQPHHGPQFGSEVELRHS
Nature of the assay: in vitro inhibition of angiotensin-converting enzyme (ACE). The class given is biochemical. On the procedure:
(§1) In vitro testing is most appropriate for the free carboxylic acids of the invention. The test compound is dissolved in dimethyl sulfoxide, ethanol, or 0.25 M sodium bicarbonate solution, and the solution is diluted with buffer to the desired concentration.
The buffer for the ACE assay is 300 mM NaCl, 100 mM KH2 PO4 (pH 8.3). The reaction is initiated by the addition of 100 μl of hippuryl-histidyl-leucine (2 mg/ml) to tubes containing enzyme and drug in a volume of 150 μl and tubes are incubated for 30 minutes at 37° C. The reaction is terminated by the addition of 0.75 ml 0.6 N NaOH. 100 μl of freshly prepared 0-pthaldehyde solution (2 mg/ml in methanol) is added to the tubes, the contents are mixed and allowed to stand at room temperature. After 10 minutes, 100 μl of 6 N HCl is added. The tubes are centrifuged and the supernatant optical density is read at 360 nm.

In assay [2] the target is T2, neutral endopeptidase (NEP, EC 3.4.24.11) (Rattus norvegicus, UniProt P07861).
T2 construct: rat kidney cortex membranes prepared by method of Maeda; from tissue; host or cells: rat kidney cortex membranes
T2 sequence (P07861 1-750): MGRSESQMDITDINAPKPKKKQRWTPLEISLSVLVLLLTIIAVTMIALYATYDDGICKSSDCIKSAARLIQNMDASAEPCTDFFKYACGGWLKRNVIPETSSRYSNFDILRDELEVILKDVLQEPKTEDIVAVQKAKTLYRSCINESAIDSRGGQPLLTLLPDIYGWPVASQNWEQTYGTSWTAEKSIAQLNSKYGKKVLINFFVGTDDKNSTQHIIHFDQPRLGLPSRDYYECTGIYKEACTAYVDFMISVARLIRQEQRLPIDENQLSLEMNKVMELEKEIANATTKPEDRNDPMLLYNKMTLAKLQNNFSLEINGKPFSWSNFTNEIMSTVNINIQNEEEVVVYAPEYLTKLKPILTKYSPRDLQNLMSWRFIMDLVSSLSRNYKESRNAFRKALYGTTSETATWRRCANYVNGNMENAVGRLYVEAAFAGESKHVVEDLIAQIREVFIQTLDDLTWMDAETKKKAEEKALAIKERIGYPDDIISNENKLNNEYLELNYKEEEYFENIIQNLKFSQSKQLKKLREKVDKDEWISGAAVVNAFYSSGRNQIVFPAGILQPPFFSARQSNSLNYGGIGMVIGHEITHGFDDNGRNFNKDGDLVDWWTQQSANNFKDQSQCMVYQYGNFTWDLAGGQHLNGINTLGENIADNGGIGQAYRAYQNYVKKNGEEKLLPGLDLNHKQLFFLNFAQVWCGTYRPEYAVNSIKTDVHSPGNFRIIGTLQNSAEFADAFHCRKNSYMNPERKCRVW
Nature of the assay: in vitro inhibition of neutral endopeptidase (GAAP assay). The settings on record: GAAP 500 μM, rat kidney cortex membranes, pH 7.4, 25° C., 10 minutes. The class given is biochemical. On the procedure:
as §1
The in vitro inhibition of neutral endopeptidase (NEP, EC 3.4.24.11 ) can be determined as follows:
Neutral endopeptidase 3.4.24.11 activity is determined by the hydrolysis of the substrate glutaryl-Ala-Ala-Phe-2-naphthylamide (GAAP) using a modified procedure of Orlowski and Wilk (1981). The incubation mixture (total volume 125 μl) contains 4.2 μg of protein (rat kidney cortex membranes prepared by method of Maeda et at, 1983), 50 mM iris buffer, pH 7.4 at 25° C., 500 μM substrate (final concentration), and leucine aminopeptidase M (2.5 μg). The mixture is incubated for 10 minutes at 25° C. and 100 μl of fast garnet (250 μg fast garnet/ml of 10% Tween 20 in 1 M sodium acetate, pH 4.2) is added. Enzyme activity is measured spectrophotometrically at 540 nm. One unit of NEP 24.11 activity is defined as 1 nmol of 2-naphthylamine released per minute at 25° C at pH 7.4. IC50 values are determined, i.e. the concentration of test compound required for 50% inhibition of the release of 2-naphthylamine.

The test system of assay [3] is Angiotensin I induced pressor response. The assay can be described thus: inhibition of the angiotensin I induced pressor response in normotensive rats. The following applies: 10 mg/Kg p.o., angiotensin I 300 ng/kg i.v. The format is in vivo, rat. As for the experimental part:
The in vivo test for intravenously administered compounds is performed with male, normotensive rats, which are anesthetized with sodium metofan. A femoral artery and femoral vein are cannulated respectively for direct blood pressure measurement on i.v. administration of angiotensin I and i.v. or p.o. administration of a compound of this invention. After the basal blood pressure is stabilized, pressor responses to 3 challenges of 300 ng/kg angiotensin I i.v., at 15 minute intervals, are obtained. Such pressure responses are usually again obtained at 15, 30, 60 and 90 minutes, and then every hour up to 6 hours after i.v. or p.o. administration of the compound to be tested, and compared with the initial responses. Any observed decrease of said pressor response is an indication of Angiotensin I converting enzyme inhibition.

For orientation: IC50 means the concentration that gives 50% inhibition.

Structures are written as SMILES. Where two headings read alike, the source gives them in different places.

With `COc1ccc(C[C@H](NC(=O)C2(NC(=O)[C@@H](S)C(C)C)CCCC2)C(=O)O)cc1` [Example 2i], the IC50 in assay [1] was approximately 19 nM; in assay [2], approximately 2.2 nM.
Turning to `CC(C)[C@H](S)C(=O)NC1(C(=O)N[C@@H](Cc2ccc(O)cc2)C(=O)O)CCCC1` [Example 2a], the IC50 in assay [1] (hippuryl-histidyl-leucine substrate, pH 8.3, 37° C., 30 minutes, read-out: IC50 in the ACE in vitro assay) was approximately 7 nM; in assay [2], approximately 2 nM.
As to `CCOC(=O)[C@H](Cc1ccc(O)cc1)NC(=O)C1(NC(=O)[C@@H](SC(C)=O)C(C)C)CCCC1` [1 (b), N-[[1-[(2(S)-acetylmercapto-3-methyl-1-oxobutyl)amino]-1-cyclopentyl]carbonyl]-L-tyrosine ethyl ester], the “duration of inhibition of the Angiotensin I induced pressor response” value in assay [3] is “six”.

Source of the values: patent publication US5506244A, “Cyclic amino acid derivatives” (Ciba-Geigy Corporation, priority 1994, dated 1996).
